The record followed here is ChEMBL document CHEMBL4342421, “Current scenario of tetrazole hybrids for antibacterial activity” (Eur J Med Chem, 2019).

Values after ≈ are worked out from the molar mass of the structure shown.

Assay [1] concerns Proteus vulgaris. Nature of the assay: Antimicrobial activity against Proteus vulgaris. The assay is classed as functional.
Assay [2] has as its system Staphylococcus aureus. Nature of the assay: Antimicrobial activity against Staphylococcus aureus. Type of assay: functional.
Assay [3] concerns Enterococcus faecalis. In words: Antimicrobial activity against Enterococcus faecalis. The assay is classed as functional.
Assay [4] deals with Nakaseomyces glabratus. Nature of the assay: Antifungal activity against Candida glabrata. Type of assay: functional.
Assay [5] deals with Listeria monocytogenes. In words: Antimicrobial activity against Listeria monocytogenes. The assay is classed as functional.
Assay [6] deals with Pseudomonas aeruginosa. In words: Antimicrobial activity against Pseudomonas aeruginosa. The assay is classed as functional.
The subject of assay [7] is Escherichia coli. Nature of the assay: Antimicrobial activity against Escherichia coli. The assay is classed as functional.
Assay [8] has as its system Candida tropicalis. Nature of the assay: Antifungal activity against Candida tropicalis. Type of assay: functional.
The subject of assay [9] is Salmonella typhimurium. Nature of the assay: Antimicrobial activity against Salmonella typhimurium. The assay is classed as functional, Salmonella enterica subsp. enterica serovar Typhimurium. Particulars: Salmonella enterica.
Assay [10] has as its system Bacillus subtilis. In words: Antimicrobial activity against Bacillus subtilis. Type of assay: functional.
The subject of assay [11] is Candida albicans. Nature of the assay: Antifungal activity against Candida albicans. Type of assay: functional.
In assay [12] the test system is Klebsiella pneumoniae. Nature of the assay: Antimicrobial activity against Klebsiella pneumoniae. Type of assay: functional.
Assay [13] deals with Pichia kudriavzevii. Nature of the assay: Antifungal activity against Candida krusei.
In assay [14] the test system is Escherichia coli. Nature of the assay: Antimicrobial activity against Escherichia coli assessed as zone of inhibition at 0.001 mol/cm3. The assay is classed as functional.
Assay [15] has as its system Staphylococcus aureus. Nature of the assay: Antimicrobial activity against Staphylococcus aureus assessed as zone of inhibition at 0.001 mol/cm3. Type of assay: functional.
The subject of assay [16] is Bacillus cereus. In words: Antimicrobial activity against Bacillus cereus assessed as zone of inhibition at 0.001 mol/cm3. The assay is classed as functional.
In assay [17] the test system is Staphylococcus epidermidis. Nature of the assay: Antimicrobial activity against Staphylococcus epidermidis. The assay is classed as functional.
The subject of assay [18] is Proteus mirabilis. In words: Antimicrobial activity against Proteus mirabilis. Type of assay: functional.
Assay [19] has as its system Aspergillus niger. In words: Antifungal activity against Aspergillus niger. The assay is classed as functional.
Assay [20] has as its system Klebsiella pneumoniae. In words: Antimicrobial activity against Klebsiella pneumoniae ATCC 700603 assessed as zone of inhibition at 100 ug/ml after 24 hrs by disc diffusion method. The assay is classed as functional. To be noted: ATCC 700603, 24 h, read-out: IZ. A general note: In agar diffusion tests the substance spreads into inoculated agar from a disc or well.
The test system of assay [21] is Pseudomonas aeruginosa. In words: Antimicrobial activity against Pseudomonas aeruginosa after 24 hrs by agar disk diffusion method. Type of assay: functional.
Assay [22] has as its system Bacillus cereus. Nature of the assay: Antimicrobial activity against Bacillus cereus. The assay is classed as functional.
Assay [23] has as its system Proteus mirabilis. In words: Antimicrobial activity against Proteus mirabilis after 24 hrs by agar disk diffusion method. Type of assay: functional.
In assay [24] the test system is Staphylococcus aureus. In words: Antimicrobial activity against Staphylococcus aureus ATCC 25923 assessed as zone of inhibition at 100 ug/ml after 24 hrs by disc diffusion method. Type of assay: functional. To be noted: ATCC 25923, 24 h, read-out: IZ.
Assay [25] has as its system Klebsiella pneumoniae. Nature of the assay: Antimicrobial activity against Klebsiella pneumoniae after 24 hrs by agar disk diffusion method. The assay is classed as functional.
Assay [26] has as its system Escherichia coli. Nature of the assay: Antimicrobial activity against Escherichia coli after 24 hrs by agar disk diffusion method. Type of assay: functional.
Assay [27] concerns Bacillus thuringiensis. Nature of the assay: Antimicrobial activity against Bacillus thuringiensis. Type of assay: functional.
Assay [28] has as its system Bacillus subtilis. Nature of the assay: Antimicrobial activity against Bacillus subtilis assessed as zone of inhibition at 5 mg/ml after 24 to 48 hrs by well diffusion method. To be noted: read-out: IZ. The assay is classed as functional.
Assay [29] relates to Streptococcus pneumoniae. Nature of the assay: Antimicrobial activity against Streptococcus pneumoniae. The assay is classed as functional.
The test system of assay [30] is Staphylococcus aureus. Nature of the assay: Antimicrobial activity against Staphylococcus aureus assessed as zone of inhibition at 5 mg/ml after 24 to 48 hrs by well diffusion method. To be noted: read-out: IZ. Type of assay: functional.
For assay [31], the system named is Prescottella equi. Nature of the assay: Antimicrobial activity against Rhodococcus equi. The assay is classed as functional. Particulars: Rhodococcus (subgen. Prescottella) equi.
For assay [32], the system named is Pseudomonas aeruginosa. In words: Antimicrobial activity against Pseudomonas aeruginosa assessed as zone of inhibition at 5 mg/ml after 24 to 48 hrs by well diffusion method. Type of assay: functional. To be noted: read-out: IZ.
The subject of assay [33] is Aspergillus niger. Nature of the assay: Antifungal activity against Aspergillus niger assessed as zone of inhibition at 10 ug/ml. Type of assay: functional. Particulars: read-out: IZ.
For assay [34], the system named is Candida albicans. In words: Antifungal activity against Candida albicans assessed as zone of inhibition at 10 ug/ml. The assay is classed as functional. Particulars: read-out: IZ.
In assay [35] the test system is Escherichia coli. In words: Antimicrobial activity against Escherichia coli ATCC 25922 after 48 hrs by NCCLS protocol based method. The assay is classed as functional. Particulars: ATCC 25922, 48 h.
The subject of assay [36] is Aspergillus niger. In words: Antifungal activity against Aspergillus niger NCIM 545 after 48 hrs by NCCLS protocol based method. The assay is classed as functional. Particulars: NCIM 545, 48 h.
Assay [37] in a line: Antifungal activity against Rhodotorula ingeniosa assessed as zone of inhibition at 10 ug/ml. Type of assay: functional. To be noted: Sampaiozyma ingeniosa; read-out: IZ.
Assay [38] concerns Penicillium. Nature of the assay: Antifungal activity against Penicillium assessed as zone of inhibition at 10 ug/ml. The assay is classed as functional. Particulars: read-out: IZ.
Assay [39] concerns Lactococcus lactis. Nature of the assay: Antimicrobial activity against Streptococcus lactis assessed as zone of inhibition at 10 ug/ml. The assay is classed as functional. Particulars: read-out: IZ.
For assay [40], the system named is Candida albicans. In words: Antifungal activity against Candida albicans MTCC 277 after 48 hrs by NCCLS protocol based method. The assay is classed as functional. Particulars: MTCC 277, 48 h.
For assay [41], the system named is Streptomyces. Nature of the assay: Antimicrobial activity against Streptomyces assessed as zone of inhibition at 10 ug/ml. The assay is classed as functional. To be noted: read-out: IZ.
Assay [42] relates to Escherichia coli. Nature of the assay: Antimicrobial activity against Escherichia coli assessed as zone of inhibition at 5 mg/ml after 24 to 48 hrs by well diffusion method. The assay is classed as functional. To be noted: read-out: IZ.
Assay [43] has as its system Pseudomonas. In words: Antimicrobial activity against Pseudomonas assessed as zone of inhibition at 10 ug/ml. The assay is classed as functional. Particulars: read-out: IZ.
In assay [44] the test system is Bacillus subtilis. Nature of the assay: Antimicrobial activity against Bacillus subtilis assessed as zone of inhibition at 10 ug/ml. To be noted: read-out: IZ. The assay is classed as functional.
Assay [45] concerns Bacillus subtilis. Nature of the assay: Antimicrobial activity against Bacillus subtilis NCIM 2250 after 48 hrs by NCCLS protocol based method. Type of assay: functional. Particulars: NCIM 2250, 48 h.
For assay [46], the system named is Escherichia coli. In words: Antimicrobial activity against Escherichia coli assessed as zone of inhibition at 10 ug/ml. To be noted: read-out: IZ. The assay is classed as functional.

In general, MIC refers to the least concentration at which growth counts as inhibited. Low readings indicate greater potency, high ones weaker potency. On to `Cn1nnnc1SCC(=O)Nc1ccc(-c2nc3cc(Cl)c(Cl)cc3n2C)cc1`, for which the MIC in assay [1], in assay [2], in [3], in [4], in assay [5] and in [6] was 12.5 to 400 µg/mL (≈ 27.9 to 892 µM) in each case. The MIC in [7], in assay [8], in assay [9], in assay [10], in [11] and in [12] was 12.5 to 400 µg/mL (≈ 27.9 to 892 µM) throughout.

On to `Fc1cc2nc(SCc3ccc(-c4ccccc4-c4nnnn4C(c4ccccc4)(c4ccccc4)c4ccccc4)cc3)[nH]c2cc1-n1ccnc1`, for which the MIC in assay [2], in assay [13], in [4], in [6], in assay [7] and in assay [8] was 16 to 64 µg/mL (≈ 22.5 to 90 µM) in each case. The MIC in assay [10] and in assay [11] was 16 to 64 µg/mL (≈ 22.5 to 90 µM) each time.

With `Cc1c(C(=O)c2ccccc2)sc(-n2cnnn2)c1C(=O)O`, the “inhibition zone (IZ)” value in assay [14], in [15] and in [16] was 17 - 24 mm throughout.

Take `COc1ccc(C2=NN(C(N)=S)C(c3cc4ccc(C)cc4n4nnnc34)C2)cc1` (configuration not stated): the MIC in [2], in assay [17], in [6], in [7], in [18] and in assay [19] was 3.12 to 25 µg/mL (≈ 7.49 to 59.9 µM) in each case. Further, the MIC in assay [11] was in the range of 3.12 to 25 µg/mL (≈ 7.49 to 59.9 µM).

With `CC1(C)S[C@@H]2[C@H](NC(=O)[C@H](N)c3ccccc3)C(=O)N2[C@H]1C(=O)O` [AMPICILLIN], the MIC was 2 to 250 µg/mL (≈ 5.72 to 715 µM) in assay [2]; 2 to 64 µg/mL (≈ 5.72 to 183 µM) in assay [13]; 6.25 µg/mL (≈ 17.9 µM) in [21]; 2 to 64 µg/mL (≈ 5.72 to 183 µM) in assay [4]; 2 to 250 µg/mL (≈ 5.72 to 715 µM) in assay [6]; 2 to 250 µg/mL (≈ 5.72 to 715 µM) in assay [7]. In addition, the MIC in [8] was 2 to 64 µg/mL (≈ 5.72 to 183 µM); in assay [22], 6.25 µg/mL (≈ 17.9 µM); in assay [19], 100 to 250 µg/mL (≈ 286 to 715 µM); in [23], 6.25 µg/mL (≈ 17.9 µM); in [25] it was 6.25 µg/mL (≈ 17.9 µM); in assay [10], 2 to 64 µg/mL (≈ 5.72 to 183 µM). For the same compound, the MIC in [11] was 2 to 250 µg/mL (≈ 5.72 to 715 µM); in assay [26], 6.25 µg/mL (≈ 17.9 µM). For the same compound, the zone of inhibition at 100 µg/mL in [20] stood at 15 mm; in assay [24], 16.5 mm.

`CCC(C)n1ncn(-c2ccc(N3CCN(c4ccc(OCC5COC(Cn6cncn6)(c6ccc(Cl)cc6Cl)O5)cc4)CC3)cc2)c1=O` (configuration not stated) [ITRACONAZOLE]: the MIC in assay [21], in assay [23], in assay [25] and in [26] was 6.25 µg/mL (≈ 8.86 µM) in each case.

For `C[C@H]1COc2c(N3CCN(C)CC3)c(F)cc3c(=O)c(C(=O)O)cn1c23.C[C@H]1COc2c(N3CCN(C)CC3)c(F)cc3c(=O)c(C(=O)O)cn1c23.O` [LEVOFLOXACIN], the “inhibition zone (IZ)” value in [14], in [15] and in assay [16] was 28 - 30 mm each time.

Consider `CC1(C)S[C@@H]2[C@H](NC(=O)Cc3ccccc3)C(=O)N2[C@H]1C(=O)O` [PENICILLIN G], for which the MIC in assay [1], in assay [27], in assay [29], in [18], in assay [9] and in assay [31] was 0.063 to 8 µg/mL (≈ 0.188 to 23.9 µM) throughout. The compound further registered an MIC in assay [10] of 0.063 to 8 µg/mL (≈ 0.188 to 23.9 µM). The zone of inhibition at 5000 µg/mL in assay [28] was 26.2 mm; in assay [30], 24.6 mm. Further, the zone of inhibition at 100 µg/mL in [24] fell in the range of 10 to 24 mm.

For the compound `CN[C@@H]1[C@H](O[C@H]2[C@H](O[C@H]3[C@H](O)[C@@H](O)[C@H](N=C(N)N)[C@@H](O)[C@@H]3N=C(N)N)O[C@@H](C)[C@]2(O)C=O)O[C@@H](CO)[C@H](O)[C@H]1O` [STREPTOMYCIN], the zone of inhibition at 5000 µg/mL in assay [32] turned out to be 20.6 mm; in assay [42], 26.9 mm. Besides, the MIC in assay [2] was 200 to 400 µg/mL (≈ 344 to 688 µM); in assay [35] it was 10 µg/mL (≈ 17.2 µM); in assay [36], 10 µg/mL (≈ 17.2 µM); in [6] it was 200 to 400 µg/mL (≈ 344 to 688 µM); in assay [7] it was 200 to 400 µg/mL (≈ 344 to 688 µM); in [40], 10 µg/mL (≈ 17.2 µM). The MIC in assay [10] was 200 to 400 µg/mL (≈ 344 to 688 µM); in assay [45], 10 µg/mL (≈ 17.2 µM). In addition, the zone of inhibition at 10 µg/mL in assay [33], in [34], in [37], in assay [38], in assay [39] and in assay [41] was 21 to 22 mm each time. For the same compound, the zone of inhibition at 10 µg/mL in assay [43], in [44] and in assay [46] was 21 to 22 mm each time.
